Test results from US12691086B2, “Methods of treating systemic sclerosis and idiopathic pulmonary fibrosis” (HORIZON THERAPEUTICS IRELAND DAC, priority 2022, dated 2026).

Key:
[1] = Food effect on PK at 450 mg single dose in healthy adult subjects; type: in vivo, human; details: for AUC(0-inf) / AUC(0-t) / Cmax: human, plasma, oral; for AUC(0-inf): read-out: AUC0-inf, Geometric LSM; for AUC(0-t): read-out: AUC0-last, Geometric LSM; for Cmax: read-out: Cmax, Geometric LSM
Method: (§1) The PK of Compound I and food effect were evaluated in an open-label study in healthy volunteers to inform the dose and dosing condition of the tablet formulations used in the clinical studies. Dose proportionality and food effect were evaluated using a 2-way, 2-period crossover design in two cohorts:150 mg and 300 mg single dose under fasting condition in Cohort 1 and 450 mg single dose under fasting and high-fat, high calorie meal condition in Cohort 2. Multiple-dose PK was evaluated using a 2-period, fixed sequence crossover design. Subjects received Compound I twice a day (BID) of 300 mg (Cohort 3) or 450 mg (Cohort 4) administered with low-fat meals in Period 1 and with high-fat meals in Period 2.
(§2) PK sample collections: For cohort 1 and 2, blood samples were collected at predose, 0.5, 1, 2, 3, 4, 6, 8, 12, 24, 36, 48, 72, 96 and 120 h post dose. For cohort 3 and 4, blood samples were collected at predose, 0.5, 1, 2, 4, 5, 12 hrs after the first dose on Day 1. After the last dose on Day 5, PK samples were taken at predose, 0.5, 1, 2, 4, 6, 12, 24, 36, 60, 84, 108 hr in Period 1 and predose, 0.5, 1, 2, 4, 6, 12 hours post last dose in Period 2.
(§3) Plasma concentrations of Compound I were determined using a validated high performance liquid chromatography-tandem mass spectrometry (HPLC MS/MS) method. The analytical range of Compound I were 250-50,000 ng/mL (high range) and […] (low range). Dose-proportionality of pharmacokinetic parameters were examined by analysis of variance (ANOVA) where the AUC0-last, AUC0-inf, and Cmax parameters were dose normalized. 90% confidence intervals (CIs) were derived by exponentiation of the CIs obtained for the difference between the treatment LSMs (Least square means). Dose proportionality was established if the 90% CI for the ratio of the geometric means for the dose-normalized parameters lay within the limits of (0.7, 1.43).
Food effect was evaluated using ANOVA on the ln-transformed PK parameters. The ANOVA model included sequence, treatment, and period as fixed effects and subject nested within sequence as a random effect. Geometric least square means, geometric mean ratio (High fat vs. fasted) and 90% confidence interval of PK parameters (AUC and Cmax) were calculated from the ANOVA model.

[2] = tested on: bleomycin-induced skin fibrosis; assay: Bleomycin-induced skin fibrosis model, therapeutic protocol; type: in vivo, mouse; details: 50 mg/kg/day
Description: Two models of skin fibrosis were used to evaluate the effect of Compound I in comparison with imatinib mesylate, used as a reference.

[3] = tested on: patients with early dcSSc; assay: 8-week double-blind, placebo-controlled study with 16-week open-label extension in dcSSc; type: in vivo, human
Description: The primary end point was safety during the double-blind phase of the trial. Exploratory end points included the identification of an LPA-induced gene signature in patients' skin.
Seventeen of 32 patients were randomly assigned to receive placebo and 15 to receive Compound I. Thirty patients participated in the open-label extension study. […] At week 8, the reduction in MRSS was numerically greater in the Compound I group than in the placebo group (mean±SD change −3.57±4.18 versus −2.76±4.85; treatment effect −1.2 [95% confidence interval −4.37, 2.02]).

[4] = Single-dose PK under fasted conditions in healthy adult subjects; type: in vivo, human; details: for AUC(0-inf) / AUC(0-t) / Cmax / Tmax / half-life: human, plasma, oral
Method: as §1, §2, §3

[5] = tested on: cardiac hypertrophy, fibrosis and heart failure; assay: Models of hypertension or diabetes-related cardiac hypertrophy, fibrosis and heart failure; details: in vivo
Description: All these pathological events can be observed in SSc patients at different levels and further support the use of Compound I in these patients.

[6] = Fed (high-fat, high-calorie meal)
[7] = therapeutic protocol, mouse skin
[8] = 24-weeks of continuous treatment
[9] = Subjects switched from placebo to Compound I, 16-week open label extension

With `COc1ccc(C(=O)NC2(C(=O)O)Cc3ccccc3C2)cc1OCCc1cccc(C)c1` [Compound I, 2-(4-methoxy-3-(3-methylphenethoxy)benzamido)-2,3-dihydro-1H-indene-2-carboxylic acid] the “Cmax, GMR fed vs fasted” value [1] was 190.85%, the AUC(0-inf) ([1]; Fasted) was 117 µg·h/mL and the AUC(0-t) ([1]; Fasted) was 116 µg·h/mL. It also gave a Cmax ([1]; Fasted) of 14000 ng/mL, an AUC(0-inf) [1, 6] of 248 µg·h/mL and an AUC(0-t) [1, 6] of 246 µg·h/mL. The Cmax [1, 6] was 26700 ng/mL, the “effect on these markers versus imatinib reference” value [2] was “comparable with the effects of imatinib” and the collagen content [2, 7] was “able to reverse”. For the same compound, the dermal thickness [2, 7] was “able to reverse”, the myofibroblast differentiation [2, 7] was “able to reverse” and the “Median Decrease in mRSS” value [3, 8] was −7.5. For the same compound, the “Responder Rate” value [3, 8] was 78.6%, the “Median Decrease in mRSS” value [3, 9] was −7.0 and the “Responder Rate” value [3, 9] was 69.2%. The “most frequent adverse events” value ([3]; blinded phase) was “headache, diarrhea, nausea, and falling”, the “MRSS during the study” value ([3]; in vivo) was “improved during the study although the difference was not significant” and the “disease biomarkers (COMP and TSP1)” value ([3]; initial Compound I group, treatment up to 24 weeks) was “numerical improvement versus baseline”. The “LPA-related genes, biomarker analysis of skin biopsies” value ([3]; open label extension) was “reductions in LPA-related genes”, the safety profile ([3]; open-label extension) was “acceptable” and the tolerability ([3]; patients with dcSSc) was “well tolerated”. For the same compound, the “reduction of LPA-related genes in skin samples versus placebo group” value ([3]; week 8) was “greater reduction”, the “treatment effect on MRSS versus placebo” value ([3]; week 8) was −1.2 and the “change in MRSS, mean±SD” value ([3]; week 8, double-blind phase) was −3.57±4.18. For the same compound, the “HAQ-DI (functional disability)” value ([3]; week 24) was “clinically significant improvement”, the “dose proportionality of Cmax and AUC” value ([4]; 150 to 450 mg, ANOVA) was “less than dose-proportional” and the AUC(0-inf) ([4]; 150 mg single dose) was 85.2 µg·h/mL. The AUC(0-t) ([4]; 150 mg single dose) was 83.8 µg·h/mL, the Cmax ([4]; 150 mg single dose) was 11100 ng/mL and the Tmax ([4]; 150 mg single dose) was 3.5 h. The half-life ([4]; 150 mg single dose) was 1310 min, the AUC(0-inf) ([4]; 300 mg single dose) was 120 µg·h/mL and the AUC(0-t) ([4]; 300 mg single dose) was 118 µg·h/mL. It also gave a Cmax ([4]; 300 mg single dose) of 14500 ng/mL, a Tmax ([4]; 300 mg single dose) of 4 h and a half-life ([4]; 300 mg single dose) of 1340 min. The AUC(0-inf) ([4]; 450 mg single dose) was 126 µg·h/mL, the AUC(0-t) ([4]; 450 mg single dose) was 125 µg·h/mL and the Cmax ([4]; 450 mg single dose) was 15200 ng/mL. The Tmax ([4]; 450 mg single dose) was 3 h, the half-life ([4]; 450 mg single dose) was 1100 min and the arterial stiffness [5] was “positive effect”. The blood pressure [5] was “mostly unchanged”, the “cardiac function and structure” value [5] was “beneficial effect” and the “cardiac systolic and diastolic function” value [5] was “improves”.
